US10131652B2, “Pyrimidinyloxy benzene derivatives as herbicides” (E. I. DU PONT DE NEMOURS AND COMPANY, priority 2014, dated 2018)
Read-outs that look alike come from different tables or passages of the source.

Legend:
Type in all cases: in vivo
[1] = tested on: morningglory (Ipomoea coccinea); assay: Test D pre-/postemergence plant response; conditions: Ipomoea; for pest or weed control at 16 g/ha: 16 g ai/ha; for pest or weed control at 31 g/ha: 31 g ai/ha; for pest or weed control at 62 g/ha: 62 g ai/ha
Summary of the method: (§1)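 Two application timings were run together: preemergence onto seeded loam–sand pots, and postemergence onto 1- to 4-leaf plants (2 to 18 cm) in peat/vermiculite medium with starter nutrients. Formulation was a non-phytotoxic solvent with surfactant. Ratings, 0 to 100, were made visually versus controls after 13 to 15 greenhouse days.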

[2] = tested on: barnyardgrass (Echinochloa crus-galli); assay: Test D pre-/postemergence plant response; conditions: Echinochloa crus-galli; for pest or weed control at 8 g/ha: 8 g ai/ha; for pest or weed control at 16 g/ha: 16 g ai/ha; for pest or weed control at 31 g/ha: 31 g ai/ha; for pest or weed control at 62 g/ha: 62 g ai/ha
Summary of the method: as §1

[3] = tested on: pigweed (Amaranthus retroflexus); assay: Test D pre-/postemergence plant response; conditions: Amaranthus retroflexus; for pest or weed control at 8 g/ha: 8 g ai/ha; for pest or weed control at 16 g/ha: 16 g ai/ha; for pest or weed control at 31 g/ha: 31 g ai/ha; for pest or weed control at 62 g/ha: 62 g ai/ha
Summary of the method: as §1

[4] = tested on: giant foxtail (Setaria faberii); assay: Test D pre-/postemergence plant response; conditions: Setaria faberi; for pest or weed control at 8 g/ha: 8 g ai/ha; for pest or weed control at 16 g/ha: 16 g ai/ha; for pest or weed control at 31 g/ha: 31 g ai/ha; for pest or weed control at 62 g/ha: 62 g ai/ha
Summary of the method: as §1

[5] = tested on: waterhemp (common waterhemp, Amaranthus rudis); assay: Test D pre-/postemergence plant response; conditions: Amaranthus tuberculatus; for pest or weed control at 8 g/ha: 8 g ai/ha; for pest or weed control at 16 g/ha: 16 g ai/ha; for pest or weed control at 31 g/ha: 31 g ai/ha; for pest or weed control at 62 g/ha: 62 g ai/ha
Summary of the method: as §1

corn (Zea mays) = assay: Test B pre-/postemergence plant response; conditions: Zea mays, 240 h, 1000 g ai/ha, 0 to 100 scale (0 no effect, 100 complete control)
Summary of the method: (§2)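 Evaluation is visual, about 10 days after application, rating injury from 0 (none) to 100 (complete control) relative to untreated controls. Application was a preemergence soil spray on seeded pots or a postemergence spray on one- to two-leaf plants.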

[6] = tested on: wheat (Triticum aestivum); assay: Test B pre-/postemergence plant response; conditions: Triticum aestivum, 240 h, 1000 g ai/ha, 0 to 100 scale (0 no effect, 100 complete control), read-out: Plant response rating, Wheat
Summary of the method: as §2

[7] = tested on: barnyardgrass (Echinochloa crus-galli); assay: Test B pre-/postemergence plant response; conditions: Echinochloa crus-galli, 240 h, 1000 g ai/ha, 0 to 100 scale (0 no effect, 100 complete control), read-out: Plant response rating, Barnyardgrass
Summary of the method: as §2

[8] = tested on: pigweed (Amaranthus retroflexus); assay: Test B pre-/postemergence plant response; conditions: Amaranthus retroflexus, 240 h, 1000 g ai/ha, 0 to 100 scale (0 no effect, 100 complete control), read-out: Plant response rating, Pigweed
Summary of the method: as §2

[9] = tested on: giant foxtail (Setaria faberii); assay: Test B pre-/postemergence plant response; conditions: Setaria faberi, 240 h, 1000 g ai/ha, 0 to 100 scale (0 no effect, 100 complete control), read-out: Plant response rating, Foxtail, Giant
Summary of the method: as §2

[10] = post-emergence, Postemergence, scale 0 to 100 (0 no effect, 100 complete control), read-out: Morningglory plant response rating
[11] = pre-emergence, Preemergence, scale 0 to 100 (0 no effect, 100 complete control), read-out: Plant response rating, Morningglory
[12] = post-emergence, Postemergence, scale 0 to 100 (0 no effect, 100 complete control), read-out: Barnyardgrass plant response rating
[13] = pre-emergence, Preemergence, scale 0 to 100 (0 no effect, 100 complete control), read-out: Plant response rating, Barnyardgrass
[14] = post-emergence, Postemergence, scale 0 to 100 (0 no effect, 100 complete control), read-out: Pigweed plant response rating
[15] = pre-emergence, Preemergence, scale 0 to 100 (0 no effect, 100 complete control), read-out: Plant response rating, Pigweed
[16] = post-emergence, Postemergence, scale 0 to 100 (0 no effect, 100 complete control), read-out: Foxtail, Giant plant response rating
[17] = pre-emergence, Preemergence, scale 0 to 100 (0 no effect, 100 complete control), read-out: Plant response rating, Foxtail, Giant
[18] = post-emergence, Postemergence, scale 0 to 100 (0 no effect, 100 complete control), read-out: Waterhemp plant response rating
[19] = pre-emergence, Preemergence, scale 0 to 100 (0 no effect, 100 complete control), read-out: Plant response rating, Waterhemp

## FC(F)c1cc(-c2ccccc2Oc2ncc(Cl)cn2)no1 [Compound 35, 5-chloro-2-[2-[5-(difluoromethyl)-3-isoxazolyl]phenoxy]pyrimidine]
[1]; [10]
  pest or weed control at 16 g/ha: 60%
  pest or weed control at 31 g/ha: 85%
[1]; post-emergence, Postemergence, scale 0 to 100, 0 no effect, 100 complete control, read-out: Plant response rating, Morningglory
  pest or weed control at 62 g/ha: 98%
[1]; pre-emergence, Preemergence, 8 g ai/ha, scale 0 to 100 (0 no effect, 100 complete control), read-out: Plant response rating, Morningglory
  pest or weed control at 8 g/ha: 0%
[1]; [11]
  pest or weed control at 16 g/ha: 0%
  pest or weed control at 31 g/ha: 55%
  pest or weed control at 62 g/ha: 90%
[2]; post-emergence, Postemergence, read-out: Plant response rating (scale 0 to 100), Barnyardgrass
  pest or weed control at 8 g/ha: 10%
[2]; [12]
  pest or weed control at 16 g/ha: 15%
  pest or weed control at 31 g/ha: 20%
[2]; post-emergence, Postemergence, scale 0 to 100, 0 no effect, 100 complete control, read-out: Plant response rating, Barnyardgrass
  pest or weed control at 62 g/ha: 20%
[2]; pre-emergence, Preemergence, read-out: Plant response rating (scale 0 to 100), Barnyardgrass
  pest or weed control at 62 g/ha: 100%
[2]; [13]
  pest or weed control at 8 g/ha: 5%
  pest or weed control at 16 g/ha: 65%
  pest or weed control at 31 g/ha: 75%
[3]; post-emergence, Postemergence, read-out: Plant response rating (scale 0 to 100), Pigweed
  pest or weed control at 8 g/ha: 80%
[3]; [14]
  pest or weed control at 16 g/ha: 80%
  pest or weed control at 31 g/ha: 90%
[3]; post-emergence, Postemergence, scale 0 to 100, 0 no effect, 100 complete control, read-out: Plant response rating, Pigweed
  pest or weed control at 62 g/ha: 95%
[3]; [15]
  pest or weed control at 8 g/ha: 100%
  pest or weed control at 16 g/ha: 100%
  pest or weed control at 31 g/ha: 100%
  pest or weed control at 62 g/ha: 100%
[4]; post-emergence, Postemergence, read-out: Plant response rating (scale 0 to 100), Foxtail, Giant
  pest or weed control at 8 g/ha: 5%
[4]; [16]
  pest or weed control at 16 g/ha: 5%
  pest or weed control at 31 g/ha: 10%
[4]; post-emergence, Postemergence, scale 0 to 100, 0 no effect, 100 complete control, read-out: Plant response rating, Foxtail, Giant
  pest or weed control at 62 g/ha: 15%
[4]; [17]
  pest or weed control at 8 g/ha: 70%
  pest or weed control at 16 g/ha: 90%
  pest or weed control at 31 g/ha: 98%
  pest or weed control at 62 g/ha: 100%
[5]; post-emergence, Postemergence, read-out: Plant response rating (scale 0 to 100), Waterhemp
  pest or weed control at 8 g/ha: 75%
[5]; [18]
  pest or weed control at 16 g/ha: 75%
  pest or weed control at 31 g/ha: 95%
[5]; post-emergence, Postemergence, scale 0 to 100, 0 no effect, 100 complete control, read-out: Plant response rating, Waterhemp
  pest or weed control at 62 g/ha: 98%
[5]; [19]
  pest or weed control at 8 g/ha: 100%
  pest or weed control at 16 g/ha: 100%
  pest or weed control at 31 g/ha: 100%
  pest or weed control at 62 g/ha: 100%
Corn (Zea mays); post-emergence, Postemergence
  Corn plant response rating (crop injury, 0 = no effect, 100 = complete kill) at 1000 g/ha: 90%
Corn (Zea mays); pre-emergence, Preemergence
  Corn plant response rating (crop injury, 0 = no effect, 100 = complete kill) at 1000 g/ha: 30%
[6]; post-emergence, Postemergence
  plant injury at 1000 g/ha: 80%
[6]; pre-emergence, Preemergence
  plant injury at 1000 g/ha: 60%
[7]; post-emergence, Postemergence
  pest or weed control at 1000 g/ha: 100%
[7]; pre-emergence, Preemergence
  pest or weed control at 1000 g/ha: 100%
[8]; post-emergence, Postemergence
  pest or weed control at 1000 g/ha: 100%
[8]; pre-emergence, Preemergence
  pest or weed control at 1000 g/ha: 10%
[9]; post-emergence, Postemergence
  pest or weed control at 1000 g/ha: 90%
[9]; pre-emergence, Preemergence
  pest or weed control at 1000 g/ha: 100%
